# ChEMBL document CHEMBL1201862, “PubChem BioAssay data set” (2004)
#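 All cell lines were grown in 96-well plates and treated with compound for 48 hours. The concentration for 50% growth inhibition is given as GI50.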 Active and inactive are the calls of the source. Cut-off read from the data, not from the text of the source: active = GI50 up to about 1.1 µM and inactive = higher.
# Columns and labels:
# Assay in all cases: NCI anticancer screen, dose series, 48 h
# 786-0 = system: 786-0
# K562 = system: K562
# NCI-H23 = system: NCI-H23
# SW-620 = system: SW-620
# SK-MEL-28 = system: SK-MEL-28
# LOX IMVI = system: LOX IMVI
# OVCAR-8 = system: OVCAR-8
# SF-539 = system: SF-539
# SR = system: SR
# MDA-MB-435 = system: MDA-MB-435
# HCC 2998 = system: HCC 2998
# OVCAR-3 = system: OVCAR-3
# T47D = system: T47D
# MCF7 = system: MCF7
# Malme-3M = system: Malme-3M
# SNB-75 = system: SNB-75
# HCT-116 = system: HCT-116
# SN12C = system: SN12C
# KM-20L2 = system: KM-20L2
# NCI/ADR-RES = system: NCI/ADR-RES
SMILES,GI50 (786-0),GI50 (K562),GI50 (NCI-H23),GI50 (SW-620),GI50 (SK-MEL-28),GI50 (LOX IMVI),GI50 (OVCAR-8),GI50 (SF-539),GI50 (SR),GI50 (MDA-MB-435),GI50 (HCC 2998),GI50 (OVCAR-3),GI50 (T47D),GI50 (MCF7),GI50 (Malme-3M),GI50 (SNB-75),GI50 (HCT-116),GI50 (SN12C),GI50 (KM-20L2),GI50 (NCI/ADR-RES)
C=C1C(=O)O[C@@H]2C[C@@H](C)[C@@H]3C=CC(=O)[C@@]3(C)[C@@H](OC(=O)CC(=O)O[C@H]3[C@@H]4C(=C)C(=O)O[C@@H]4C[C@@H](C)[C@@H]4C=CC(=O)[C@]43C)[C@H]12,0.0199 µM (active),0.0154 µM (active),0.0345 µM (active),0.0129 µM (active),0.0398 µM (active),< 0.0335 µM (active),0.0299 µM (active),0.0252 µM (active),0.0103 µM (active),0.0356 µM (active),0.146 µM (active),0.033 µM (active),0.179 µM (active),0.0356 µM (active),0.0174 µM (active),0.136 µM (active),0.0143 µM (active),0.0348 µM (active),0.0771 µM (active),
Cc1ccc(NC(=O)CC2SC(=N)NC2=O)cc1C (stereo not given),> 100 µM (inactive),> 100 µM (inactive),> 100 µM (inactive),> 100 µM (inactive),> 100 µM (inactive),> 100 µM (inactive),> 100 µM (inactive),> 100 µM (inactive),> 100 µM (inactive),,75 µM (inactive),> 100 µM (inactive),,,> 100 µM (inactive),> 100 µM (inactive),> 100 µM (inactive),> 100 µM (inactive),> 100 µM (inactive),
COc1ccc2[nH]c3c(c2c1)[C@H](c1ccccc1)C[C@@H]1C(=O)N(c2ccccc2)C(=O)[C@H]31,17.5 µM (inactive),47.9 µM (inactive),,20.7 µM (inactive),> 100 µM (inactive),33.2 µM (inactive),4.93 µM (inactive),> 100 µM (inactive),31.6 µM (inactive),,35.5 µM (inactive),23.8 µM (inactive),,,45.5 µM (inactive),20.7 µM (inactive),4.95 µM (inactive),12.1 µM (inactive),64.9 µM (inactive),
CCOC(=O)c1oc2ccc([N+](=O)[O-])c3c2c1CCC3,25.6 µM (inactive),> 69.7 µM (inactive),61.4 µM (inactive),> 90.8 µM (inactive),> 82.4 µM (inactive),66.5 µM (inactive),82.4 µM (inactive),19 µM (inactive),> 100 µM (inactive),> 39.3 µM (inactive),> 87.9 µM (inactive),> 100 µM (inactive),> 31.6 µM (inactive),> 76.6 µM (inactive),> 63.4 µM (inactive),14 µM (inactive),51.1 µM (inactive),> 84.3 µM (inactive),> 100 µM (inactive),64.9 µM (inactive)
N#CC(C#N)=c1[nH]c2cccc3c2-c2c(cccc2c3=C(C#N)C#N)[nH]1,> 100 µM (inactive),> 100 µM (inactive),> 100 µM (inactive),> 100 µM (inactive),,> 100 µM (inactive),> 100 µM (inactive),> 100 µM (inactive),> 100 µM (inactive),,> 100 µM (inactive),> 100 µM (inactive),,,> 100 µM (inactive),53.1 µM (inactive),80.7 µM (inactive),> 100 µM (inactive),> 100 µM (inactive),
